Measurements published in ChEMBL document CHEMBL1201862, “PubChem BioAssay data set” (2004).
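Method: 48-hour compound exposure of cells in 96-well plates, five concentrations, linear interpolation of endpoints. GI50 = concentration required for 50% inhibition of growth.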 Activity calls are given as the source filed them. Cut-off read from the data, not from the text of the source: active = GI50 up to about 1.1 µM and inactive = higher.

Assays:
Assay in all cases: NCI tumour cell line growth inhibition, 48 h
[1] = test system: MDA-N
[2] = test system: OVCAR-3
[3] = test system: NCI-H226
[4] = test system: HOP-62
[5] = test system: UACC-62
[6] = test system: TK-10
[7] = test system: MOLT-4
[8] = test system: U-251
[9] = test system: UO-31
[10] = test system: COLO 205
[11] = test system: SF-268
[12] = test system: HOP-92
[13] = test system: NCI-H522
[14] = test system: SNB-19
[15] = test system: SK-MEL-2
[16] = test system: SK-OV-3
[17] = test system: OVCAR-4
[18] = test system: LOX IMVI
[19] = test system: A498

CC(=O)OC(C(=O)NNC(=O)OC(C)(C)C)c1ccccc1 (centres undefined)
GI50 [1]: > 100 µM (inactive)
GI50 [2]: > 100 µM (inactive)
GI50 [3]: > 100 µM (inactive)
GI50 [4]: > 100 µM (inactive)
GI50 [5]: > 100 µM (inactive)
GI50 [6]: > 100 µM (inactive)
GI50 [7]: > 100 µM (inactive)
GI50 [8]: > 100 µM (inactive)
GI50 [9]: > 100 µM (inactive)
GI50 [10]: > 100 µM (inactive)
GI50 [11]: > 100 µM (inactive)
GI50 [12]: > 100 µM (inactive)
GI50 [13]: > 100 µM (inactive)
GI50 [14]: > 100 µM (inactive)
GI50 [15]: > 100 µM (inactive)
GI50 [16]: > 100 µM (inactive)

Nc1n[n+]([O-])c2cc([N+](=O)[O-])ccc2[n+]1[O-]
GI50 [1]: 2.07 µM (inactive)
GI50 [17]: 3.43 µM (inactive)
GI50 [2]: 1.93 µM (inactive)
GI50 [3]: 15.5 µM (inactive)
GI50 [4]: 6.81 µM (inactive)
GI50 [5]: 2.49 µM (inactive)
GI50 [6]: 30.2 µM (inactive)
GI50 [7]: 0.787 µM (active)
GI50 [8]: 4.61 µM (inactive)
GI50 [9]: 10.5 µM (inactive)
GI50 [18]: 1.38 µM (inactive)
GI50 [10]: 3.85 µM (inactive)
GI50 [19]: 15.9 µM (inactive)
GI50 [13]: 2.07 µM (inactive)
GI50 [14]: 13.6 µM (inactive)
GI50 [15]: 15 µM (inactive)
GI50 [16]: 10.5 µM (inactive)

C=C1C2C[C@@H]3O[C@H]4C[C@H]5O[C@@]6(C[C@@H]7O[C@]8(C[C@H](C)[C@@H]9O[C@@H]%10CC(C=O)O[C@@H]%10C[C@@H]9O8)C[C@H](C)[C@@H]7O6)C[C@H]5O[C@H]4[C@H](C)[C@H]3OC(=O)C[C@H]3CC[C@@H]4OC5[C@H]6O[C@]7(CC[C@H]8CC(=C)[C@H](CC[C@@H](C[C@H]1C)O2)O8)CC6O[C@@H]5[C@@H](O7)[C@H]4O3 (some centres undefined)
GI50 [1]: < 0.0001 µM (active)
GI50 [2]: < 0.0001 µM (active)
GI50 [3]: < 0.0001 µM (active)
GI50 [4]: < 0.0001 µM (active)
GI50 [5]: < 0.0001 µM (active)
GI50 [6]: 0.00771 µM (active)
GI50 [7]: < 0.0001 µM (active)
GI50 [8]: < 0.0001 µM (active)
GI50 [9]: < 0.0001 µM (active)
GI50 [18]: < 0.0001 µM (active)
GI50 [10]: < 0.0001 µM (active)
GI50 [11]: < 0.0001 µM (active)
GI50 [12]: 0.000724 µM (active)
GI50 [13]: < 0.0001 µM (active)
GI50 [14]: 0.000104 µM (active)

c1ccc(Cc2nc(Cc3n[nH]c(Cc4ccccc4)n3)n[nH]2)cc1
GI50 [1]: > 100 µM (inactive)
GI50 [17]: > 100 µM (inactive)
GI50 [2]: > 100 µM (inactive)
GI50 [4]: > 100 µM (inactive)
GI50 [5]: > 100 µM (inactive)
GI50 [6]: > 100 µM (inactive)
GI50 [7]: > 100 µM (inactive)
GI50 [8]: > 100 µM (inactive)
GI50 [9]: > 100 µM (inactive)
GI50 [18]: > 100 µM (inactive)
GI50 [10]: > 100 µM (inactive)
GI50 [11]: > 100 µM (inactive)
GI50 [12]: > 100 µM (inactive)
GI50 [13]: > 100 µM (inactive)
GI50 [14]: > 100 µM (inactive)
GI50 [15]: > 100 µM (inactive)
GI50 [16]: > 100 µM (inactive)

C=C(CCC/C(C)=C/C=C/[C@]1(C)CCCc2ccoc21)CC(=O)O
GI50 [17]: > 100 µM (inactive)
GI50 [2]: 54.8 µM (inactive)
GI50 [3]: > 100 µM (inactive)
GI50 [4]: > 100 µM (inactive)
GI50 [5]: 75.3 µM (inactive)
GI50 [6]: > 100 µM (inactive)
GI50 [7]: 38.7 µM (inactive)
GI50 [8]: 68.4 µM (inactive)
GI50 [9]: > 100 µM (inactive)
GI50 [18]: > 100 µM (inactive)
GI50 [10]: > 100 µM (inactive)
GI50 [11]: > 100 µM (inactive)
GI50 [19]: > 100 µM (inactive)
GI50 [12]: > 100 µM (inactive)
GI50 [13]: > 100 µM (inactive)
GI50 [14]: > 100 µM (inactive)
GI50 [15]: > 100 µM (inactive)
GI50 [16]: > 100 µM (inactive)

O=C(Nc1ccccc1)OCCN=C1c2ccccc2CCc2ccccc21
GI50 [1]: 19.6 µM (inactive)
GI50 [17]: 21.9 µM (inactive)
GI50 [2]: 13.6 µM (inactive)
GI50 [3]: 29.4 µM (inactive)
GI50 [4]: 19.7 µM (inactive)
GI50 [5]: 13.1 µM (inactive)
GI50 [6]: 31.8 µM (inactive)
GI50 [7]: 9.73 µM (inactive)
GI50 [8]: 17.3 µM (inactive)
GI50 [9]: 17.3 µM (inactive)
GI50 [18]: 20 µM (inactive)
GI50 [10]: 17.6 µM (inactive)
GI50 [11]: 25.6 µM (inactive)
GI50 [14]: 14.8 µM (inactive)
GI50 [15]: 15 µM (inactive)
GI50 [16]: 23.6 µM (inactive)

OC1CCC(C2C3CCCCC3C3CCCCC3C2C2CCC(O)CC2)CC1 (centres undefined)
GI50 [17]: 4.04 µM (inactive)
GI50 [2]: 4.67 µM (inactive)
GI50 [3]: 6 µM (inactive)
GI50 [4]: 5.04 µM (inactive)
GI50 [5]: 7.16 µM (inactive)
GI50 [6]: 5.18 µM (inactive)
GI50 [7]: 4.39 µM (inactive)
GI50 [8]: 3.6 µM (inactive)
GI50 [9]: 4.81 µM (inactive)
GI50 [18]: 2.31 µM (inactive)
GI50 [10]: 2.22 µM (inactive)
GI50 [11]: 2.99 µM (inactive)
GI50 [19]: 15.8 µM (inactive)
GI50 [12]: 8.05 µM (inactive)
GI50 [13]: 2.34 µM (inactive)
GI50 [14]: 6.44 µM (inactive)
GI50 [15]: 5.56 µM (inactive)
GI50 [16]: 5.19 µM (inactive)

COC(=O)Cc1c(C(=O)CC(C)(C)n2cnc(CCN3C(=O)CCC3=O)c2)[nH]c2ccccc12
GI50 [1]: > 100 µM (inactive)
GI50 [17]: > 100 µM (inactive)
GI50 [2]: > 100 µM (inactive)
GI50 [3]: > 100 µM (inactive)
GI50 [5]: > 100 µM (inactive)
GI50 [6]: > 100 µM (inactive)
GI50 [7]: > 100 µM (inactive)
GI50 [8]: > 100 µM (inactive)
GI50 [9]: 37.5 µM (inactive)
GI50 [18]: > 100 µM (inactive)
GI50 [10]: > 100 µM (inactive)
GI50 [11]: > 100 µM (inactive)
GI50 [12]: 15 µM (inactive)
GI50 [13]: 32.4 µM (inactive)
GI50 [14]: > 100 µM (inactive)
GI50 [15]: > 100 µM (inactive)
GI50 [16]: > 100 µM (inactive)
